Source: patent US20250129012A1, “ANTI-INFLAMMATORY AND ANALGESIC COMPOUNDS AND USE THEREOF” (JIANGSU ATOM BIOSCIENCE AND PHARMACEUTICAL CO., LTD., priority 2021, published 2025)
Where two headings read alike, the source gives them in different places. Marks after values point to notes of the source that are not given here.

Legend:
[1] = In vivo pharmacokinetics in SD rats
Description: Compound stock solution preparation: an appropriate amount of solid powder of the compounds were weighed separately, a certain amount of DMSO was added and 20 mg/mL of stock solution was obtained under vortex ultrasound.
Preparation of test compound for gavage: an appropriate amount of compound stock solution was taken by pipette, a certain amount of Solutol HS15 solution was added, the mixture was vortexed for 1 minute, then a certain amount of saline was added, and 1 mg/mL of solution was obtained after mixing well.
Preparation of test compounds for intravenous injection: an appropriate amount of compound stock solution was taken by pipette separately, a certain amount of Solutol HS15 solution was added, the mixture was vortexed for 1 minute, then a certain amount of physiological saline was added and a solution of 0.5 mg/mL was obtained after mixing well.
The animals were fasted overnight before administration by gavage, and food was given 4 hours after administration, during which they were free to drink. Two groups were set for each test compound, intravenous injection group and oral administration group, and the dose and mode of administration were shown in Table 12 below.
The blood samples were centrifuged at 4° C. for 5 min at 2,000 g to separate the plasma. The plasma samples were analyzed by LC/MS/MS to detect the concentration of each test compound in the plasma samples.
The parameters related to the […] were obtained by calculations with WinNonlin® Professional software.

[2] = tested on: gouty arthritis in rats (urate crystals, left ankle joint); experiment: Pharmacodynamics experiment A on gouty arthritis in rats: pain score; assay type: in vivo, SD rats; design: Pain score: scale not given here; settings: 0.6 mg/kg gavage; for Pain versus model group, in words: time points after modeling, P<0.05 or P<0.01; for Pain score: Mean ± SEM
Description: (§1) Compounds 2, 17, 26 and 27 were prepared by grinding with 0.5% CMC-Na into a suspension of the corresponding concentration (0.06 mg/mL) for gavage before administration, and the volume of administration was 10 mL/kg. […] Before use, 0.5% CMC-Na was used for grinding and prepared into a suspension of the corresponding concentration (0.06 mg/mL) for gavage, and the volume of drug administered was 10 mL/kg.
(§2) Each group of subjects was prepared into a suspension of the corresponding concentration, and the administration volume was 10 mL/kg.
(§3) The crystalline arthritis model was prepared by intra-articular injection of urate crystals (40 mg/mL, in the left ankle joint of each rat). Different doses of the test drug were given separately by gavage administration. The day of administration was defined as day 1 of the experiment, and the drug was administered once a day for 10 consecutive days (pre-administration of the drug for 7 days prior to modeling, modeling on day 8, and continuation of the drug for 3 days). The experiment ended on day 10.
The pain level was scored using the flexion and extension joint pain test scoring method at the same time point.
(§4) The data obtained from the experiment were statistically analyzed using IBM SPSS Statistics 22.0. All measurements were expressed as Mean±S.E.M s. The data were analyzed using SPSS 22.0 statistical software and variance chi-square test was performed on the parameters.

[3] = tested on: gouty arthritis in rats (urate crystals, left ankle joint); experiment: Pharmacodynamics experiment A on gouty arthritis in rats: paw volume; assay type: in vivo, SD rats; settings: for Paw volume versus model group, in words: time points after modeling; for Paw volume: Mean ± SEM
Description: as §1, §2, §3
Paw volume was measured before administration, before urate injection, and 2, 4, 8, 10, 24, and 48 h after injection.
as §4

[4] = tested on: gouty arthritis in rats (urate crystals, left ankle joint); experiment: Pharmacodynamics experiment A on gouty arthritis in rats: gait score; assay type: in vivo, SD rats; design: Gait Score: scale not given here; settings: 0.6 mg/kg gavage; for Gait versus model group, in words: time points after modeling, P<0.05 or P<0.01; for Gait Score: Mean ± SEM
Description: as §1, §2, §3
The degree of lameness of the modeled joints was observed and scored at the same time point.
as §4

[5] = Sprague-Dawley, rat, in vivo, 10 mg/kg
[6] = Sprague-Dawley, rat, in vivo, iv, 1 mg/kg
[7] = Sprague-Dawley, rat, in vivo, po, 10 mg/kg
[8] = 2 h after modeling, 0.6 mg/kg gavage
[9] = 4 h after modeling, 0.6 mg/kg gavage
[10] = 8 h after modeling, 0.6 mg/kg gavage
[11] = 10 h after modeling, 0.6 mg/kg gavage
[12] = 24 h after modeling, 0.6 mg/kg gavage
[13] = 48 h after modeling, 0.6 mg/kg gavage
[14] = before modeling, 0.6 mg/kg gavage once a day

| Compound | F [1, 5] | AUC(0-inf) [1, 6] | MRT inf [1, 6] | Vd [1, 6] | clearance [1, 6] | half-life [1, 6] | AUC(0-inf) [1, 7] | Cmax [1, 7] | MRT inf [1, 7] | Tmax [1, 7] | half-life [1, 7] | Pain versus model group, in words [2] | Pain score ([2]; 2 h after modeling) | Pain score ([2]; 4 h after modeling) | Pain score ([2]; 8 h after modeling) | Pain score ([2]; 10 h after modeling) | Pain score ([2]; 24 h after modeling) | Pain score ([2]; 48 h after modeling) | Pain score ([2]; before modeling) | Paw volume versus model group, in words ([3]; 0.6 mg/kg gavage) | further results |
| --- | --- | --- | --- | --- | --- | --- | --- | --- | --- | --- | --- | --- | --- | --- | --- | --- | --- | --- | --- | --- | --- |
| [2H]C([2H])([2H])Oc1c(OC)c(OC)cc2c1-c1ccc(C(=O)NC)c(=O)cc1[C@@H](NC(C)=O)CC2 [Compound 132, (S)-7-acetamido-2,3-dimethoxy-1-trideuteromethoxy-N-methyl-9-oxo-5,6,7,9-tetrahydrobenzo[a]heptalen-10-carboxamide] | 47.5% | 702 ng·h/mL | 1.06 h | 1.39 L/kg | 24.3 mL/min/kg | 2.12 h | 3340 ng·h/mL | 1780 ng/mL | 2.1 h | 0.25 h | 1.39 h | – | – | – | – | – | – | – | – | – | – |
| CNC(=O)c1ccc2c(cc1=O)[C@@H](NC(C)=O)CCc1cc3c(c(OC)c1-2)OCO3 [Compound 125, (S)-6-acetamido-13-methoxy-N-methyl-4-oxo-4,6,7,8-tetrahydroheptalen[1′,2′:4,5]benzo[1,2-d][1,3]dioxolane-3-carboxamide] | – | – | – | – | – | – | – | – | – | – | – | – | – | – | – | – | – | – | – | – | F ([1]; Gavage - 10 mg/kg, calculated by AUCINF): 93.0%; AUC(0-inf) ([1]; Sprague-Dawley, rat, in vivo, po, Gavage - 10 mg/kg, read-out: AUCINF): 5460 ng·h/mL; Cmax ([1]; Sprague-Dawley, rat, in vivo, po, Gavage - 10 mg/kg, read-out: Cmax): 4150 ng/mL; MRT inf ([1]; Sprague-Dawley, rat, in vivo, po, Gavage - 10 mg/kg, read-out: MRTINF): 1.8 h; Tmax ([1]; Sprague-Dawley, rat, in vivo, po, Gavage - 10 mg/kg, read-out: Tmax): 0.25 h; half-life ([1]; Sprague-Dawley, rat, in vivo, po, Gavage - 10 mg/kg, read-out: t1/2 (converted)): 3.33 h; AUC(0-inf) ([1]; Sprague-Dawley, rat, in vivo, Intravenous injection - 1 mg/kg, read-out: AUCINF): 587 ng·h/mL; clearance ([1]; Sprague-Dawley, rat, in vivo, Intravenous injection - 1 mg/kg, read-out: CL (converted)): 28.5 mL/min/kg; MRT inf ([1]; Sprague-Dawley, rat, in vivo, Intravenous injection - 1 mg/kg, read-out: MRTINF): 0.675 h; Vd ([1]; Sprague-Dawley, rat, in vivo, Intravenous injection - 1 mg/kg, read-out: VSS): 1.15 L/kg; half-life ([1]; Sprague-Dawley, rat, in vivo, Intravenous injection - 1 mg/kg, read-out: t1/2 (converted)): 1.19 h |
| COc1cc2c(c(OC)c1OC)-c1ccc(=O)c(OC3CCOC3)cc1[C@@H](NC(C)=O)CC2 (stereo partly drawn) [Compound 27, (S)—N-(1,2,3-trimethoxy-10-oxo-9-[(tetrahydrofuran-3-yl)oxy]-5,6,7,10-tetrahydrobenzo[a]heptalen-7-yl)acetamide] | – | – | – | – | – | – | – | – | – | – | – | significantly improved gait at 2 h, 8 h, 10 h, 24 h, and 48 h | 2.00 ± 0.67 | 2.80 ± 0.68 | 3.30 ± 0.47 | 2.50 ± 0.65 | 1.50 ± 0.60 | 1.00 ± 0.60 | 0.00 ± 0.00 | significantly reduce the paw volume at 2 h, 4 h, 8 h, 10 h, and 48 h | Paw volume [3, 8]: 2.51 ± 0.04** cm^3; Paw volume [3, 9]: 2.54 ± 0.03* cm^3; Paw volume [3, 10]: 2.57 ± 0.04* cm^3; Paw volume [3, 11]: 2.55 ± 0.04* cm^3; Paw volume [3, 12]: 2.50 ± 0.07 cm^3; Paw volume [3, 13]: 2.29 ± 0.04** cm^3; Paw volume [3, 14]: 2.16 ± 0.04 cm^3; Gait versus model group, in words [4]: significantly improved the gait at 2 h, 24 h, and 48 h; Gait Score ([4]; 2 h after modeling): 1.00 ± 0.00; Gait Score ([4]; 4 h after modeling): 1.10 ± 0.10; Gait Score ([4]; 8 h after modeling): 1.40 ± 0.22; Gait Score ([4]; 10 h after modeling): 1.20 ± 0.20; Gait Score ([4]; 24 h after modeling): 1.00 ± 0.00; Gait Score ([4]; 48 h after modeling): 1.00 ± 0.00; Gait Score ([4]; before modeling): 0.00 ± 0.00 |
| [2H]C([2H])([2H])Oc1cc2c(c(OC)c1OC([2H])([2H])[2H])-c1ccc(C(=O)NC)c(=O)cc1[C@@H](NC(C)=O)CC2 [Compound 124, (S)-7-acetamido-1-methoxy-2,3-bis(trideuteromethoxy)-N-methyl-9-oxo-5,6,7,9-tetrahydrobenzo[a] heptalen-10-carboxamide] | 44.7% | 756 ng·h/mL | 0.652 h | 0.864 L/kg | 22.3 mL/min/kg | 0.644 h | 3380 ng·h/mL | 2260 ng/mL | 1.71 h | 0.333 h | 1.38 h | – | – | – | – | – | – | – | – | – | – |
| [2H]C([2H])([2H])NC(=O)c1ccc2c(cc1=O)[C@@H](NC(C)=O)CCc1cc(OC)c(OC)c(OC)c1-2 [Compound 56, (S)-7-acetamido-1,2,3-trimethoxy-N-(trideuterio)methyl-9-oxo-5,6,7,9-tetrahydrobenzo[a]heptalen-10-carboxamide] | 62.3% | 597 ng·h/mL | 0.582 h | 0.977 L/kg | 28.7 mL/min/kg | 0.59 h | 3720 ng·h/mL | 1640 ng/mL | 2.2 h | 0.417 h | 1.27 h | – | – | – | – | – | – | – | – | – | – |
| COc1cc2c(c(OC)c1OC)-c1ccc(NS(C)(=O)=O)c(=O)cc1[C@@H](NC(C)=O)CC2 [Compound 2, (S)—N-(1,2,3-trimethoxy-10-methanesulfonylamino-9-oxo-5,6,7,9-tetrahydrobenzo[a]heptalen-7-yl)acetamide] | – | – | – | – | – | – | – | – | – | – | – | significantly improved pain at 2 h, 4 h, 8 h, 10 h, 24 h, and 48 h | 2.70 ± 0.68 | 1.30 ± 0.52 | 3.30 ± 0.54 | 2.20 ± 0.68 | 1.30 ± 0.62 | 1.00 ± 0.67 | 0.00 ± 0.00 | significantly reduce the paw volume at 2 h, 4 h, and 48 h | Paw volume [3, 8]: 2.51 ± 0.06* cm^3; Paw volume [3, 9]: 2.54 ± 0.04* cm^3; Paw volume [3, 10]: 2.63 ± 0.06 cm^3; Paw volume [3, 11]: 2.59 ± 0.07 cm^3; Paw volume [3, 12]: 2.52 ± 0.08 cm^3; Paw volume [3, 13]: 2.35 ± 0.06* cm^3; Paw volume [3, 14]: 2.18 ± 0.02 cm^3; Gait versus model group, in words [4]: significantly improved the gait at 2 h, 8 h, 24 h, and 48 h; Gait Score ([4]; 2 h after modeling): 1.10 ± 0.10; Gait Score ([4]; 4 h after modeling): 1.10 ± 0.10; Gait Score ([4]; 8 h after modeling): 1.10 ± 0.10; Gait Score ([4]; 10 h after modeling): 1.20 ± 0.13; Gait Score ([4]; 24 h after modeling): 1.00 ± 0.00; Gait Score ([4]; 48 h after modeling): 1.00 ± 0.00; Gait Score ([4]; before modeling): 0.00 ± 0.00 |
